# The source made the active and inactive calls. The rule behind the calls is not given here.
# What was measured:
# [1] = biological target: T1, Glutamate NMDA receptor (Rattus norvegicus) (UniProt P35439+Q00959+Q00960+Q00961+Q62645+Q8VHN2+Q9R1M7)
# [2] = biological target: T1, Glutamate NMDA receptor (Rattus norvegicus); assay: Agonistic activity against N-methyl-D-aspartate glutamate receptor was determined in rat cortical slice preparation at concentration up to 5 mM; Not active; type: functional
# [3] = biological target: T1, Glutamate NMDA receptor (Rattus norvegicus); assay: Antagonistic activity against N-methyl-D-aspartate glutamate receptor antagonist was determined in rat cortical slice preparation at concentration up to 5 mM; not active; type: functional
# [4] = biological target: T1, Glutamate NMDA receptor (Rattus norvegicus); assay: Effective dose required for agonistic activity against N-methyl-D-aspartate glutamate receptor was determined in rat cortical slice preparation; type: functional
# [5] = biological target: T1, Glutamate NMDA receptor (Rattus norvegicus); assay: Antagonistic activity against N-methyl-D-aspartate glutamate receptor antagonist was determined in rat cortical slice preparation at concentration up to 1 mM; not active; type: functional
# [6] = biological target: T1, Glutamate NMDA receptor (Rattus norvegicus); assay: Antagonistic activity against N-methyl-D-aspartate glutamate receptor antagonist was determined in rat cortical slice preparation at concentration up to 100 mM; not active; type: functional
# [7] = biological target: T1, Glutamate NMDA receptor (Rattus norvegicus); assay: Antagonistic activity against N-methyl-D-aspartate glutamate receptor antagonist was determined in rat cortical slice preparation at concentration up to 100 mM; Active; type: functional
ED50 [2],ED50 [4] [µM],further results,SMILES
–,–,ED50 [1]: 15 µM,CN[C@H](CC(=O)O)C(=O)O
inactive,–,NA [3]: inactive,O=C(O)[C@@H]1CCC[C@H](C(=O)O)N1
–,35,–,O=C(O)[C@@H]1CCCN[C@H]1C(=O)O (relative stereo)
–,60,–,O=C(O)[C@@H]1CCN[C@@H](C(=O)O)C1 (relative stereo)
–,–,NA [5]: inactive,O=C(O)[C@@H]1CC[C@H](C(=O)O)NC1 (relative stereo)
–,15,NA [6]: inactive,O=C(O)[C@H]1CCCN[C@H]1C(=O)O (relative stereo)
inactive,–,A [7]: Active,O=C(O)[C@H]1CCN[C@@H](C(=O)O)C1 (relative stereo)
inactive,–,NA [3]: inactive,O=C(O)[C@H]1CC[C@H](C(=O)O)NC1 (relative stereo)

# Source: ChEMBL document CHEMBL1125143, “Relationship between structure, conformational flexibility, and biological activity of agonists and antagonists at the N-methyl-D-aspartic acid subtype of excitatory amino acid receptors” (J Med Chem, 1990)
